Consider nine compounds from article PMC5557808 (Nature Communications, 2017).

Series [1] has as its target T1, Leucine aminopeptidase (AP) (Sus scrofa, UniProt P15145).
T1 construct: Leucine aminopeptidase (AP; Mw = 280 kDa) from porcine kidney; purchased Sigma-Aldrich Chemie, Schnelldorf, Germany; host or cells: porcine kidney (tissue-derived)
T1 sequence (P15145 1-963): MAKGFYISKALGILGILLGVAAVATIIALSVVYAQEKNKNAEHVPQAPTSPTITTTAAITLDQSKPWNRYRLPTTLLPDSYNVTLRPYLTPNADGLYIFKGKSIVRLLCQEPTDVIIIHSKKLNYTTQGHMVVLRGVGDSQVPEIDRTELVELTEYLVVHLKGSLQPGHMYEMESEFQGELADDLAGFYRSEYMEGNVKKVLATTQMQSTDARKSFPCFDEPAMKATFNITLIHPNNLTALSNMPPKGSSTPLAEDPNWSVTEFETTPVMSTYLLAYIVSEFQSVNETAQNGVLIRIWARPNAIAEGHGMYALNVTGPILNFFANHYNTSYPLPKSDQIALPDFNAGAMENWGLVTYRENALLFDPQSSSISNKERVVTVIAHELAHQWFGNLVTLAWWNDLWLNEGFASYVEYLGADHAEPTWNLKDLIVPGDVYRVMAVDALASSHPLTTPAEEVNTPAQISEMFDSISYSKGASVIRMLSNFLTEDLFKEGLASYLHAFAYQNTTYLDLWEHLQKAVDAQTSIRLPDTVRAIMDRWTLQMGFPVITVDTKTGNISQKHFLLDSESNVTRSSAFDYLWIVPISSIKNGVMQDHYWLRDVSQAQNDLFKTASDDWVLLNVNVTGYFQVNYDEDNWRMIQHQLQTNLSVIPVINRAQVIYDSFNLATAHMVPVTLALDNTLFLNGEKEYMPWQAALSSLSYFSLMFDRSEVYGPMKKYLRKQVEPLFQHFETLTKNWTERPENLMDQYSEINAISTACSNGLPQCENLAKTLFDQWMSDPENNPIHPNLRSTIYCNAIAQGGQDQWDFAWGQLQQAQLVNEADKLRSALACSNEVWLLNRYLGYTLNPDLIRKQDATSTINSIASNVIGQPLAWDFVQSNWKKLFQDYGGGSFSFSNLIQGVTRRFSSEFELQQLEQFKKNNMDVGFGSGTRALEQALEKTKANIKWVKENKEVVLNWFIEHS
The series is described as follows: Aminopeptidase (AP) incubation. Type of series: biochemical, porcine. On the procedure: Leucine aminopeptidase (AP; Mw = 280 kDa) from porcine kidney dissolved in AP buffer (50 mM Tris-HCl, 1 mM CaCl2, and 150 mM NaCl at pH 7.0) was used. L-leucine-p-nitroanilide (0.125 mg/mL) was used as control substrate. For AP digestion, 1 mg of purified lyophilized peptide was diluted in 2 mL AP buffer resulting in a final concentration of 0.5 mg/mL substrate. To evaluate the impact of AP concentration on peptide cleavage, AP was added at concentrations of 0 (negative control), 0.87, 8.7, 39, and 78 µg/mL and the samples were incubated at 37 °C for 1 h. For analysis of the AP incubation time, an AP concentration of 0.87 µg/mL was used and analyzed after 10, 20 min and 1, 2, 3, and 6 h. To stop the enzyme activity, samples were kept at 95 °C for 15 min. Afterwards, HPLC analyses were performed (as described in the Supplementary Information) to analyze the relative decrease of the main peak as compared to the negative control. Further details are given in the Supplementary Methods.
MMP -9) in a concentration of 0.4 ng/µL (50 µL) were mixed with MMP -8 buffer (37 µL), detection enz yme (5 µL) and substrate (8µL; all fro m Q uic kZ yme® ). The acti vi t y was meas ur ed for 12 hours in inter vals of 10 minutes. […]
Aminopeptidase (AP) incubation
Leucine A minopeptidase (AP; M w = 280 kD a) from porcine kidney dissolved in AP buffer (50 mM Tris-HCl, 1 mM CaCl2 and 150 mM NaCl at pH 7.0) was used. L-leu cin e-p-nitroan ilide (0.125mg/ mL) was used as control substr at e. […] Fo r anal ysis of the impact of AP incubation time, the identical conditions were used (AP concentration of 0.87 µg / mL (and analyzed after 10, 20 minutes and 1, 2, 3 and 6 hours ). To stop the enzymatic activit y, sa mp les wer e kept at 95 °C for 15 minutes. A fterwards, H PLC analys es were p erformed (as descr ibed) to an al yze th e relative d ecr eas e of the ma i n pea k as co mp ared to the negative control (see […]
V(B)/(V(A)+V(B)) = 5 % to 90 % over 10 min, V(B)/(V(A)+V(B)) = 90 % for 5 min, V(B)/(V(A)+V(B)) = 90 % to 5 % over 3 min. […] UV detection was measured at 254 nm. […]

The subject of series [2] is MMP-8, then leucine aminopeptidase (AP). The series is described as follows: MMP-8 for 22 h, followed by exposure to AP in AP buffer. To be noted: porcine kidney (AP), 37 °C, up to 22 h MMP + 30 minutes AP.
Series [3] concerns MMP-8. Put plainly: MMP-8 buffer (200 mM NaCl, 50 mM Tris-HCl, 5 mM CaCl2, 1 µM ZnCl2, 0.05% Brij 35 at pH 6.8–7.0). To be noted: human, 37 °C, up to 6 hours.
In series [4] the test system is MMP-8. The series is described as follows: MMP-8 in MMP-8 buffer. The note with it: human, 37 °C, up to 22 h.
Series [5] concerns MMP-8. Put plainly: MMP-8. The note with it: human, up to 12 h.
The target of series [6] is T2, MMP-8 (Homo sapiens, UniProt P22894).
T2 construct: purchased EMD Millipore Corporation (Billerica, MA)
Put plainly: MMP-8 cleavage of soluble PCL conjugates (HPLC decrease of main peak). In kind it is biochemical. The note with it: up to 12 h; control PCLs; MMP-8 buffer pH 6.8-7.0, 37 °C. Here is the method:
Pro-MMPs (e.g., MMP-8, MMP-1, or MMP-9; used at 0.1 mg/mL and >100.0 mU/mg based on the manufacturer’s information) were activated with p-aminophenylmercuric acetate (APMA) (8). For that, a 10 mM stock solution of APMA was freshly prepared in 0.1 M NaOH and a 10:1 (v/v) ratio of the respective proenzyme and the APMA solution (MMP:APMA) was incubated for 3 h at 37 °C. The activity was confirmed using the MMP-8 detection kit (QuickZyme Biosciences, Leiden, the Netherlands). A stock solution (90 µg/mL) of the activated MMP was prepared (used for cleavage studies on the PCL or the fully assembled microparticle-PCL-tastant setup (sensor), in MMP-8 buffer (200 mM NaCl, 50 mM Tris-HCl, 5 mM CaCl2, 1 µM ZnCl2, 0.05% Brij 35 at pH 6.8–7.0). All MMP experiments are described in detail in the Supplementary Methods. […]
in water ( v/v)) and eluent B (0.1 % TFA in 2:3 water-acetonitrile (v/v)) and a gradient from 33 to 80% elu ent B within 30 minutes. UV absorption was r ead at λ = 280 nm or 220 nm. After freezing the samples at -80 °C, fr eeze- drying was performed on a Christ Alpha 1 -4 de vi ce (Martin Christ Gefriertrocknungs anlagen, Osterode am Harz, G e r ma n y) at a desublimers ’ te mperature of - 60 ° C, pressure of 1.030 mbar and processing temperature of 19 °C.
Pro-MMPs (e. g. MMP -8, MMP -1 or MMP-9; adapted to 0.1 mg/mL and > 100.0 mU/mg based on manufacturer information and when appropriate) were activated with APMA 8. For that, a 10 mM stock solution of APMA in 0.1 M NaOH was freshly prepared and a 10:1 (v/v) ratio of the r especti ve proenzyme and APMA solution (MMP:APMA) was incubated for 3 h at 37 °C. The activity was conf ir med using the MMP-8 detection kit (Q uic kZ ym e® Biosciences, Leiden, Netherlands). A stock solution (90 µg/mL) of the activated MMP was prepared (used for cleavage studies on the pr ot eas e-cleavable linker (PCL; e.g. Figure 2) or the fully assemb led microparticle -PCL- t ast ant setup (sensor; e.g. Figure 3) , in MMP -8 buffer (200 mM NaCl, 50 mM Tris-H Cl, 5 mM C aC l2, 1 µM ZnCl2, 0.05 % Brij35 at pH 6.8- 7.0). A ll MMP -8 exp eriments wer e performed as follo ws. 25 µg of the sensor ( see chap ter : Peptide-coupling to beads (Sensor)) in 100 µL MMP-buffer or 1 mg of FP LC -purified and lyophilized PCL as described dissolved 2 mL M MP -buffer resulting in a final concentration of 0.5 mg/ mL substrate was used. […]
Figure 2A , 3, 4B ). […]
(sensor) in co mpar ison to negative controls (the negative controls for the PCL an d sensor exper i men ts were b y incubation without MMP under otherwise identical conditions). The relative d ecreas e of the PCL’s ma in peak was char act er ized by HPLC (PCL) or of the sensor’s fluorescence b y FACS (sensor) in comparison to control. […]

Where a SMILES comes first, the peptide text is derived from it. The star is where a group is joined. X1 = CC[N+](CC)(CC(=O)Nc1c(C)cccc1C)Cc1cccc(C(=O)*)c1

T2 sequence (P22894 101-467): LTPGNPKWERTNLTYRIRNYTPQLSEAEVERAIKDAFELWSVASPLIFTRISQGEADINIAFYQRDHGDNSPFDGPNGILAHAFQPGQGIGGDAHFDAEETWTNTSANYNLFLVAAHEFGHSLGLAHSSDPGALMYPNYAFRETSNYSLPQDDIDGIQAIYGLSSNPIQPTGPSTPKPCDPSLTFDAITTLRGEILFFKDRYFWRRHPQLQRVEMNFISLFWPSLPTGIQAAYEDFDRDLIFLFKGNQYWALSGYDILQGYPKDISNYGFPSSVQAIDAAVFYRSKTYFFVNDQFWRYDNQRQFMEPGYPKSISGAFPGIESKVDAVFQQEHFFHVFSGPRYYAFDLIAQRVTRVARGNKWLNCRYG

Take `CC[C@H](C)[C@H](N)C(=O)N[C@@H](C)C(=O)NCC(=O)N[C@@H](CCC(N)=O)C(=O)N[C@@H](CCCCNC(=O)c1cccc(C[N+](CC)(CC)CC(=O)Nc2c(C)cccc2C)c1)C(N)=O` [ID #5a] (H-IAGQK(X1)-NH2): the “cleavage of the peptide denatonium fragment by aminopeptidase” value in series [1] (870 ng/mL AP, within 250 min, 0.5 mg/mL substrate, AP buffer pH 7.0, 37 °C, HPLC, n = 5) was determined as 80%. As to A( N3)-GPQGIA GQ-K-De, in series [2], the fragment found result was “denatonium coupled lysin”. The cleaved bond result in the series with MMP-8 [3] and with MMP-8 [4] was “G-I” each time. For the compound “A( N3)-GPQGIA GQ-K-De [ID #5, second-generation PCL denatonium conjugate]”, the “effect of additional AP incubation after complete MMP-8 cleavage” value in series [1] (AP 3.1 nM (0.87 µg/mL), 30 min, 37 °C, after 22 h with 1800 ng/mL MMP-8, LC-MS) is recorded as “emerging peaks”.

On to Cf-GP QGIA GQ-A( N3)-Q, for which the cleaved bond entry with MMP-8 [3] was “G-I”. For the compound Cf-GPLGI AGQ-A( N3)-Q, the not cleaved entry with MMP-8 [5] is given as “not cleaved by MMP-8 up to 12 h”. Regarding “Cf-GPLGI AGQ-A( N3)-Q [ID #3, control PCL, exchange Q3L]”, at MMP-8 [6], the “cleavage by MMP-8” value is “not cleaved”. Turning to Cf-GPQGYAGQ-A( N3)-Q, the not cleaved entry with MMP-8 [5] is given as “not cleaved by MMP-8 up to 12 h”.

“Cf-GPQGYAGQ-A( N3)-Q [ID #4, control PCL, exchange I5Y]”: the “cleavage by MMP-8” value on MMP-8 [6] is reported as “not cleaved”. On to De-GPQG, for which the not cleaved result in series [2] is listed as “no difference after additional AP incubation for 30 minutes”.
